Laboratory results: patent publication US9597407B2, “Targeted antimicrobial moieties” (C3 Jian, Inc., priority 2009, dated 2017)
Ends that are not written are not given here.

Test system: microorganisms
Assay: Morphology, biofilm and growth disruption by peptides (Table 5)
Assay type: cell-based
Set-up: key: A: Peptide aggregates; B: Less hyphal formation; Clumps; Diffuse clumps and small polyps; F: Diffuse growth; H: Thin; I: Growth inhibition; Microcolony formation; Rippled; Small polyps; Thick; W: Halo formation on top, microlonies on bottom
From the text: In certain embodiments peptides that induce alterations in phenotype or other biological activities can also be used as antimicrobial effector moieties.

GSVIKKRRKRMAKKKHRKLLKKTRIQRRRAGK [PF-527]
Organism, effect (morphology, biofilm and growth disruption) (B. subtilis): B. subtilis (I)
Organism, effect (morphology, biofilm and growth disruption) (C. albicans): C. albicans (B)
Organism, effect (morphology, biofilm and growth disruption) (C. jeikeium): C. jeikeium (I)
Organism, effect (morphology, biofilm and growth disruption) (C. jejuni): C. jejuni (M)
Organism, effect (morphology, biofilm and growth disruption) (M. luteus): M. luteus (S)
Organism, effect (morphology, biofilm and growth disruption) (MRSA): MRSA (I)
Organism, effect (morphology, biofilm and growth disruption) (P. aeruginosa): P. aeruginosa (I)
Organism, effect (morphology, biofilm and growth disruption) (S. epidermidis): S. epidermidis (M)
Organism, effect (morphology, biofilm and growth disruption) (S. pneumoniae): S. pneumoniae (H)

MRFGSLALVAYDSAIKHSWPRPSSVRRLRM [PF-672]
Organism, effect (morphology, biofilm and growth disruption) (B. subtilis): B. subtilis (I)
Organism, effect (morphology, biofilm and growth disruption) (C. albicans): C. albicans (I)
Organism, effect (morphology, biofilm and growth disruption) (C. jeikeium): C. jeikeium (R)
Organism, effect (morphology, biofilm and growth disruption) (E. faecalis): E. faecalis (I)
Organism, effect (morphology, biofilm and growth disruption) (MRSA): MRSA (I)
Organism, effect (morphology, biofilm and growth disruption) (S. epidermidis): S. epidermidis (I)
Organism, effect (morphology, biofilm and growth disruption) (S. pneumoniae): S. pneumoniae (I)

PF-264 (MQSLSNRQSLIASYILMGIFLSFGYPPASLSKFFCRLSHL; Peptide with targeting and/or antimicrobial activity)
Organism, effect (M. luteus): M. luteus (H)

PF-586 (FFNQANYFFKEF; Peptide with targeting and/or antimicrobial activity)
Organism, effect (morphology, biofilm and growth disruption) (C. jejuni): C. jejuni (D)
Organism, effect (morphology, biofilm and growth disruption) (E. coli): E. coli (C)
Organism, effect (morphology, biofilm and growth disruption) (E. faecalis): E. faecalis (D)
Organism, effect (morphology, biofilm and growth disruption) (MRSA): MRSA (D)
Organism, effect (morphology, biofilm and growth disruption) (S. epidermidis): S. epidermidis (C)
Organism, effect (morphology, biofilm and growth disruption) (S. pneumoniae): S. pneumoniae (D)

PF-468 (EDNKDKKDKKDK; Peptide with targeting and/or antimicrobial activity)
Organism, effect (morphology, biofilm and growth disruption) (S. pneumoniae): S. pneumoniae (H)

PF-032 (RIVVPAHQSNMASTPNLSITP; Peptide with targeting and/or antimicrobial activity)
Organism, effect (C. jeikeium): C. jeikeium (C)
Organism, effect (S. epidermidis): S. epidermidis (S)

PF-059 (TITLKAGIERALHEEVPGVIEVEQVF; Peptide with targeting and/or antimicrobial activity)
Organism, effect (C. jejuni): C. jejuni (C)

KNKKQTDILEKVKEILDKKKKTKSVGQKLY [PF-538]
Organism, effect (morphology, biofilm and growth disruption) (S. pneumoniae): S. pneumoniae (H)

PF-418 (FFLVHFYIRKRKGKVSIFLNYF; Peptide with targeting and/or antimicrobial activity)
Organism, effect (C. jejuni): C. jejuni (D)
Organism, effect (E. coli): E. coli (C)
Organism, effect (E. faecalis): E. faecalis (D)
Organism, effect (MRSA): MRSA (D)
Organism, effect (S. epidermidis): S. epidermidis (M)
Organism, effect (S. pneumoniae): S. pneumoniae (D)

PF-485 (KNSMSRSIALID; Peptide with targeting and/or antimicrobial activity)
Organism, effect (morphology, biofilm and growth disruption) (S. pneumoniae): S. pneumoniae (A)

PF-407 (KPKNKKEKTVISYEKLLSMY; Peptide with targeting and/or antimicrobial activity)
Organism, effect (E. faecalis): E. faecalis (R)
Organism, effect (MRSA): MRSA (C)
Organism, effect (S. epidermidis): S. epidermidis (M)
Organism, effect (S. pneumoniae): S. pneumoniae (R)

RRGCTERLRRMARRNAWDLYAEHFY [PF-148]
Organism, effect (B. subtilis): B. subtilis (I)
Organism, effect (C. albicans): C. albicans (B)
Organism, effect (C. jeikeium): C. jeikeium (H)
Organism, effect (C. jejuni): C. jejuni (H)
Organism, effect (M. luteus): M. luteus (A)
Organism, effect (MRSA): MRSA (C)
Organism, effect (S. epidermidis): S. epidermidis (D)
Organism, effect (S. pneumoniae): S. pneumoniae (R)

PF-190 (HFILRKPLLFMIHSLKTGPLDRF; Peptide with targeting and/or antimicrobial activity)
Organism, effect (C. jeikeium): C. jeikeium (R)
Organism, effect (S. epidermidis): S. epidermidis (C)

MGIIAGIIKVIKSLIEQFTGK [PF-007]
Organism, effect (E. coli): E. coli (A)
Organism, effect (E. faecalis): E. faecalis (A)
Organism, effect (M. luteus): M. luteus (A)
Organism, effect (MRSA): MRSA (R)
Organism, effect (S. epidermidis): S. epidermidis (A)

PF-415 (MIDVTIGQKSKTGAFNASYSICFSGENFSF; Peptide with targeting and/or antimicrobial activity)
Organism, effect (S. pneumoniae): S. pneumoniae (D)

PF-347 (GIFTGVTVVVSLKHC; Peptide with targeting and/or antimicrobial activity)
Organism, effect (E. coli): E. coli (C)
Organism, effect (E. faecalis): E. faecalis (C)
Organism, effect (MRSA): MRSA (C)
Organism, effect (S. epidermidis): S. epidermidis (C)

FESKILNASKELDKEKKVNTALSFNSHQDFAKAYQNGKI [PF-606]
Organism, effect (morphology, biofilm and growth disruption) (C. albicans): C. albicans (B)
Organism, effect (morphology, biofilm and growth disruption) (MRSA): MRSA (I)
Organism, effect (morphology, biofilm and growth disruption) (S. epidermidis): S. epidermidis (I)
Organism, effect (morphology, biofilm and growth disruption) (S. mutans): S. mutans (I)
Organism, effect (morphology, biofilm and growth disruption) (S. pneumoniae): S. pneumoniae (H)

PF-C214 (GGHKQLVIEPLVSQ; Peptide with targeting and/or antimicrobial activity)
Organism, effect (morphology, biofilm and growth disruption) (F. nucleatum): F. nucleatum (T)

PF-C293 (IIIILPKIYLVCKTV; Peptide with targeting and/or antimicrobial activity)
Organism, effect (morphology, biofilm and growth disruption) (F. nucleatum): F. nucleatum (T)
Organism, effect (morphology, biofilm and growth disruption) (P. gingivalis): P. gingivalis (R)
Organism, effect (morphology, biofilm and growth disruption) (S. mutans): S. mutans (F)

PF-541 (RRNLNSPNIKTRKRALKIIKQHQRSK; Peptide with targeting and/or antimicrobial activity)
Organism, effect (morphology, biofilm and growth disruption) (E. coli): E. coli (H)
Organism, effect (morphology, biofilm and growth disruption) (S. pneumoniae): S. pneumoniae (H)

PF-565 (RAEAEAQRQAEADAKRKAEEAARL; Peptide with targeting and/or antimicrobial activity)
Organism, effect (morphology, biofilm and growth disruption) (B. subtilis): B. subtilis (D)
Organism, effect (morphology, biofilm and growth disruption) (MRSA): MRSA (C)

PF-399 (FPIISALLGAIICIAIYSFIVNRKA; Peptide with targeting and/or antimicrobial activity)
Organism, effect (E. coli): E. coli (C)
Organism, effect (E. faecalis): E. faecalis (C)
Organism, effect (MRSA): MRSA (C)
Organism, effect (S. epidermidis): S. epidermidis (C)

PF-398 (ILVVLAGILLVVLSYVGISKFKMNC; Peptide with targeting and/or antimicrobial activity)
Organism, effect (E. coli): E. coli (C)
Organism, effect (E. faecalis): E. faecalis (C)
Organism, effect (MRSA): MRSA (C)
Organism, effect (S. epidermidis): S. epidermidis (C)

PF-303 (EYPWSWISEPWPWDKSFYK; Peptide with targeting and/or antimicrobial activity)
Organism, effect (B. subtilis): B. subtilis (C)

LGLTAGVAYAAQPTNQPTNQPTNQPTNQPTNQPTNQPRW-NH2 [PF-520]
Organism, effect (morphology, biofilm and growth disruption) (S. pneumoniae): S. pneumoniae (M)

PF-199 (FPAFSFGAIAGSVSVAR; Peptide with targeting and/or antimicrobial activity)
Organism, effect (C. jeikeium): C. jeikeium (R)
Organism, effect (M. luteus): M. luteus (A)
Organism, effect (S. epidermidis): S. epidermidis (C)

PF-419 (VVTGKVGSLPQIK; Peptide with targeting and/or antimicrobial activity)
Organism, effect (S. pneumoniae): S. pneumoniae (H)

PF-001 (chain 1 MNNWIIVAQLSVTVINEIIDIMKEKQKGGK; chain 2 MNNWIIVAQLSVTVINEIIDIMKEKQKGGK; Peptide with targeting and/or antimicrobial activity)
Organism, effect (C. jeikeium): C. jeikeium (D)
Organism, effect (M. luteus): M. luteus (C)
Organism, effect (MRSA): MRSA (R)
Organism, effect (S. epidermidis): S. epidermidis (C)

PF-615 (FLNRFIFYIFTVKTKSALIKNLFLD; Peptide with targeting and/or antimicrobial activity)
Organism, effect (morphology, biofilm and growth disruption) (C. jejuni): C. jejuni (D)
Organism, effect (morphology, biofilm and growth disruption) (E. coli): E. coli (C)
Organism, effect (morphology, biofilm and growth disruption) (E. faecalis): E. faecalis (D)
Organism, effect (morphology, biofilm and growth disruption) (MRSA): MRSA (D)
Organism, effect (morphology, biofilm and growth disruption) (S. epidermidis): S. epidermidis (D)
Organism, effect (morphology, biofilm and growth disruption) (S. pneumoniae): S. pneumoniae (D)

PF-004 (chain 1 ARLSKAIIIAVIVVYHLDVRGLF; chain 2 ARLSKAIIIAVIVVYHLDVRGLF; Peptide with targeting and/or antimicrobial activity)
Organism, effect (C. jeikeium): C. jeikeium (A)
Organism, effect (M. luteus): M. luteus (A)
Organism, effect (MRSA): MRSA (R)
Organism, effect (S. epidermidis): S. epidermidis (A)

PF-293 (YDPLK; Peptide with targeting and/or antimicrobial activity)
Organism, effect (S. epidermidis): S. epidermidis (C)

PF-274 (SIQEAEKIIKNDPFYIHDVADYDFMWFEPSKSLEEIKEFV; Peptide with targeting and/or antimicrobial activity)
Organism, effect (M. luteus): M. luteus (M)

YIQFHLNQQPRPKVKKIKIFL-NH2 [PF-531]
Organism, effect (morphology, biofilm and growth disruption) (E. coli): E. coli (M)
Organism, effect (morphology, biofilm and growth disruption) (P. aeruginosa): P. aeruginosa (I)
Organism, effect (morphology, biofilm and growth disruption) (S. epidermidis): S. epidermidis (I)
Organism, effect (morphology, biofilm and growth disruption) (S. pneumoniae): S. pneumoniae (C)

PF-610 (VFLKLKTSKIDLASIIFYP; Peptide with targeting and/or antimicrobial activity)
Organism, effect (morphology, biofilm and growth disruption) (C. jejuni): C. jejuni (D)
Organism, effect (morphology, biofilm and growth disruption) (E. coli): E. coli (C)
Organism, effect (morphology, biofilm and growth disruption) (E. faecalis): E. faecalis (D)
Organism, effect (morphology, biofilm and growth disruption) (MRSA): MRSA (D)
Organism, effect (morphology, biofilm and growth disruption) (S. epidermidis): S. epidermidis (C)
Organism, effect (morphology, biofilm and growth disruption) (S. pneumoniae): S. pneumoniae (D)
